Assay results published in patent publication EP3744729B1, “PEPTIDES, COMPOSITIONS COMPRISING THEM AND COSMETIC AND DERMOPHARMACEUTICAL USES” (SEDERMA, priority 2009, dated 2023).
Where a SMILES comes first, the peptide text is derived from it. [ ]: non-standard residue; d: D form. The star is where a group is joined. Met(O2) = CS(=O)(=O)CC[C@H](N)C(=O)O; Palmitoyl = CCCCCCCCCCCCCCCC(=O)*

How the values were obtained:
[1] = test system: normal human dermal fibroblasts (NHF); assay: ELISA test on normal human dermal fibroblasts (NHF): macromolecules in culture supernatant; format: cell-based; details: % difference compared to the control; for Collagen I in the dermis: 3 days contact; for Collagen I in the dermis Test 1: Table 7
Method: > ELISA test on normal human dermal fibroblasts (NHF)
This test examines the dermal molecules.
Normal human dermal fibroblasts are cultured in multi-well plates. The cells either are or are not placed in contact with the test substances for 3 days. The culture supernatants are removed and the quantity of macromolecules present (collagen I, fibronectin, collagen IV and hyaluronic acid) is assayed by ELISA.

dermal NHF = assay: Immunostaining method on dermal NHF: collagen I (Table 7, Test 2); format: cell-based, human; details: % difference compared to the control
Excerpt: Table 7 showing % differences in collagen I in the dermis compared to the control for dioxygenated peptide compounds according to the immunostaining method or to ELISA test on dermal NHF

[2] = test system: normal human dermal fibroblasts (NHF); assay: Immunofluorescence (IMF) on normal human dermal fibroblasts (NHF): collagen III; format: cell-based; details: 5 ppm peptide
Method: > Immunofluorescence (IMF) on normal human dermal fibroblasts (NHF)
This test examines dermal molecules.
Norman human fibroblasts are cultured in plates. The cells either are or are not placed in contact with the test substances for […]. The cell layers are then labeled with antibodies specifically recognizing collagen III. Photographs were used to reveal and quantify the synthesis of collagen III.

Human Keratinocytes (HK) = assay: ELISA test on Human Keratinocytes (HK): macromolecules in culture supernatant; format: cell-based; details: epidermal HK, % difference compared to the control
Method: > ELISA test on Human Keratinocytes (HK)
This test examines epidermal molecules.
Human keratinocytes are cultured in multi-well plates. The cells either are or are not placed in contact with the test substances for 3 days. The culture supernatants are removed and the quantity of macromolecules present (fibronectin, laminins and hyaluronic acid) is assayed by ELISA.

[3] = Table 5, ELISA, 5 ppm peptide, no plant

CCCCCCCCCCCCCCCC(=O)N[C@@H](CCCCN)C(=O)N[C@@H](C)C(=O)N[C@@H](CCCCN)C(=O)O [Pal-KAK-OH, reference compound] (Palmitoyl-Lys-Ala-Lys-OH)
Coll. I ([1]; 4 ppm peptide): +42%
Coll. IV ([1]; 4 ppm peptide): -6%
Fibronectin ([1]; dermal NHF, 4 ppm peptide): +33%

CCCCCCCCCCCCCCCC(=O)N[C@@H](CCCCN)C(=O)N[C@@H](CS)C(=O)N[C@@H](CCCCN)C(=O)O [Pal-KCK-OH] (Palmitoyl-Lys-Cys-Lys-OH)
Coll. I ([1]; 4 ppm peptide): +145%
Coll. IV ([1]; 4 ppm peptide): -1%
Collagen I in the dermis ([1]; 4 ppm peptide): +145%
Coll. I ([1]; 6 ppm peptide): +133%
Coll. IV ([1]; 6 ppm peptide): +23%
Collagen I in the dermis ([1]; 6 ppm peptide): +133%
Fibronectin ([1]; dermal NHF, 4 ppm peptide): +57%
Fibronectin ([1]; dermal NHF, 6 ppm peptide): +70%

CCCCCCCCCCCCCCCC(=O)N[C@@H](CCCCN)C(=O)N[C@@H](CCSC)C(=O)N[C@@H](CCCCN)C(=O)O [Pal-KMK-OH] (Palmitoyl-Lys-Met-Lys-OH)
Collagen I in the dermis ([1]; 4 ppm peptide): +21%
Collagen I in the dermis ([1]; 8 ppm peptide): +64%
Collagen I in the dermis Test 1 ([1]; 4 ppm): +21%
Collagen I in the dermis Test 1 ([1]; 6 ppm): +63%

CCCCCCCCCCCCCCCC(=O)N[C@@H](CCCCN)C(=O)N[C@@H](CCS(C)(=O)=O)C(=O)N[C@@H](CCCCN)C(=O)O [Pal-KMO2K-OH] (Palmitoyl-Lys-[Met(O2)]-Lys-OH)
Collagen I in the dermis Test 2 (dermal NHF; 2 ppm): +329%
Collagen I in the dermis Test 2 (dermal NHF; 4 ppm): +423%
Collagen I in the dermis Test 2 (dermal NHF; 5 ppm): +486%
Coll. III ([2]; % difference compared to the control, 35 days contact): +104%
Coll. III ([2]; Table 5, % difference compared to the control, no plant): +104%
Coll. I ([1]; 4 ppm peptide): +188%
Coll. IV ([1]; 4 ppm peptide): +27%
Collagen I in the dermis ([1]; 4 ppm peptide): +188%
Coll. I ([1]; 6 ppm peptide): +187%
Coll. IV ([1]; 6 ppm peptide): +97%
Collagen I in the dermis ([1]; 6 ppm peptide): +187%
Coll. I [1, 3]: +111%
Coll. IV [1, 3]: +42%
Fibronectin [1, 3]: +59%
Hyaluronic acid [1, 3]: ≈0%
Collagen I in the dermis Test 1 ([1]; 4 ppm): +188%
Collagen I in the dermis Test 1 ([1]; 6 ppm): +187%
Fibronectin ([1]; dermal NHF, 4 ppm peptide): +42%
Hyaluronic acid ([1]; dermal NHF, 4 ppm peptide): ≈0%
Fibronectin ([1]; dermal NHF, 6 ppm peptide): +109%
Hyaluronic acid ([1]; dermal NHF, 6 ppm peptide): +55%
Hyaluronic acid (Human Keratinocytes (HK); Table 6, 2 ppm peptide, no plant): +44%
Hyaluronic acid (Human Keratinocytes (HK); Table 6, 4 ppm peptide, no plant): +139%
Hyaluronic acid (Human Keratinocytes (HK); Table 6, 5 ppm peptide, no plant): +172%
Hyaluronic acid (Human Keratinocytes (HK); Table 6, 6 ppm peptide, no plant): +290%
Fibronectin (Human Keratinocytes (HK); 4 ppm peptide): +35%
Hyaluronic acid (Human Keratinocytes (HK); 4 ppm peptide): +139%
Laminins (Human Keratinocytes (HK); 4 ppm peptide): +30%
Fibronectin (Human Keratinocytes (HK); 5 ppm peptide): +65%
Hyaluronic acid (Human Keratinocytes (HK); 5 ppm peptide): +172%
Laminins (Human Keratinocytes (HK); 5 ppm peptide): +66%
Fibronectin (Human Keratinocytes (HK); 6 ppm peptide): +159%
Hyaluronic acid (Human Keratinocytes (HK); 6 ppm peptide): +290%
Laminins (Human Keratinocytes (HK); 6 ppm peptide): +172%

CCCCCCCCCCCCCCCC(=O)N[C@@H](CCCCN)C(=O)N[C@@H](CC(N)=O)C(=O)N[C@@H](CCCCN)C(=O)O [Pal-KNK-OH] (Palmitoyl-Lys-Asn-Lys-OH)
Collagen I in the dermis ([1]; 5 ppm peptide): +55%

CCCCCCCCCCCCCCCC(=O)N[C@@H](CCCCN)C(=O)N[C@@H](CCC(N)=O)C(=O)N[C@@H](CCCCN)C(=O)O [Pal-KQK-OH]
Coll. I ([1]; 5 ppm peptide): +82%
Fibronectin ([1]; dermal NHF, 5 ppm peptide): +35%

CCCCCCCCCCCCCCCC(=O)N[C@@H](CCCCN)C(=O)N[C@@H](CO)C(=O)N[C@@H](CCCCN)C(=O)O [Pal-KSK-OH, reference compound] (Palmitoyl-Lys-Ser-Lys-OH)
Coll. I ([1]; 4 ppm peptide): +46%
Coll. IV ([1]; 4 ppm peptide): +1%
Fibronectin ([1]; dermal NHF, 4 ppm peptide): +26%

CCCCCCCCCCCCCCCC(=O)N[C@@H](CCS(C)(=O)=O)C(=O)NCCCCC(N)=O [Pal-MO2-Ava-NH2]
Collagen I in the dermis Test 2 (dermal NHF; 2 ppm): +375%
Collagen I in the dermis Test 2 (dermal NHF; 4 ppm): +582%
Collagen I in the dermis Test 2 (dermal NHF; 6 ppm): +461%

CCCCCCCCCCCCCCCC(=O)N[C@@H](CCS(C)(=O)=O)C(=O)N[C@@H](CCCCN)C(=O)O [Pal-MO2-K-OH] (Palmitoyl-[Met(O2)]-Lys-OH)
Collagen I in the dermis Test 2 (dermal NHF; 2 ppm): +270%
Collagen I in the dermis Test 2 (dermal NHF; 4 ppm): +457%
Collagen I in the dermis Test 2 (dermal NHF; 6 ppm): +226%

CCCCCCCCCCCCCCCC(=O)N[C@@H](CCS(C)(=O)=O)C(=O)N[C@H](C(=O)N[C@@H](Cc1ccccc1)C(=O)N[C@@H](CCCCN)C(=O)O)[C@@H](C)O [Pal-MO2-T-F-K-OH] (Palmitoyl-[Met(O2)]TFK-OH)
Collagen I in the dermis Test 2 (dermal NHF; 2 ppm): +218%
Collagen I in the dermis Test 2 (dermal NHF; 4 ppm): +456%
Collagen I in the dermis Test 2 (dermal NHF; 6 ppm): +520%
Collagen I in the dermis Test 1 ([1]; 4 ppm): +111%
Collagen I in the dermis Test 1 ([1]; 6 ppm): +148%
